The record followed here is patent US20160153998A1, “BIOMARKERS FOR PREDICTING THE SENSITIVITY OF CELLS TO IMMUNOMODULATORY COMPOUNDS DURING TREATMENT OF NON-HODGKIN'S LYMPHOMA” (Celgene Corporation, priority 2007, published 2016).

What all share (format): cell-based
The subject of assay [1] is Jeko-1 cells. In words: Real-time RT-PCR mRNA levels in Jeko-1 cells. The settings on record: 24 hours. The protocol:
(§1) After the cell treatment, total RNA was purified. Real-time PCR was performed with 100 ng of total RNA, using an Applied Biosystems 7500 instrument (Applied Biosystems, Foster City, Calif.) using TaqMan Sequence Detection chemistry which uses a fluorogenic probe (FAM) to enable the detection of a specific PCR product as it accumulates during PCR. Samples were prepared in triplicate in 50 μl reaction volumes. The 50 μl reactions consisted of 25 μl 2× TaqMan PCR master mix, 2.5 μl of 20× gene expression assay, 10 μl of RNA ([…]) and 12.5 μl water. Glyceraldehyde-3-phosphate dehydrogenase (GAPDH) was used as the endogenous control to ensure equal RNA amounts in each sample.
(§2) TaqMan® Gene Expression Assays were pre-formulated gene expression assays for rapid, reliable detection and quantification of human, mouse and rat mRNA transcripts. The PCR program used was: 50° C. for 2 minutes, 95° C. for 10 minutes, 40 cycles of 95° C. for 15 seconds, 60° C. for 1 minute. Data was analyzed using 7500 Real-Time PCR System Sequence Detection software v1.3 using the comparative CT relative quantification calculation method. The output was expressed as a fold-change of expression levels. The threshold level was selected to be automatically determined by the software and was set to be above the baseline but sufficiently low to be within the exponential growth region of an amplification curve. The cycle number at which the fluorescence signal associated with a particular amplicon accumulation crosses the threshold is referred to as the CT.
Jeko-1 cells were treated with immunomodulatory compounds, with or without dexamethasone (10 nM) for 24 hours. Total RNA was then isolated from the treated cells, and the samples were subjected to real-time RT-PCR analysis to determine gene transcription at the mRNA level. […] 1,3-dioxo-2-(2,6-dioxopiperidin-3-yl)-4-aminoisoindoline (at 10 μM) enhanced mRNA levels of these genes up to about 3-fold. 1-oxo-2-(2,6-dioxopiperidin-3-yl)-4-aminoisoindoline (1 μM) enhanced activin A mRNA level up to 2.6-fold, and SPARC was enhanced at 10 μM.

For assay [2], the system named is Rec-1 cells. In words: Real-time PCR gene expression in Rec-1 cells. The settings on record: 1, 10 or 100 μM, 24 or 48 hours, alone or with dexamethasone 10 nM. The procedure: as §1, §2
The effect of 1,3-dioxo-2-(2,6-dioxopiperidin-3-yl)-4-aminoisoindoline or 1-oxo-2-(2,6-dioxopiperidin-3-yl)-4-aminoisoindoline, either alone or in combination with Dexamethasone (10 nM) on the expression of several important genes involved in the regulation of NHL cell proliferation and survival was determined using Rec-1 cells (FIG. 1). The immunomodulatory compounds 1,3-dioxo-2-(2,6-dioxopiperidin-3-yl)-4-aminoisoindoline or 1-oxo-2-(2,6-dioxopiperidin-3-yl)-4-aminoisoindoline were added to the Rec-1 cells at a final concentration of 1, 10, or 100 μM. After 24 or 48 hours of incubation with 1,3-dioxo-2-(2,6-dioxopiperidin-3-yl)-4-aminoisoindoline or 1-oxo-2-(2,6-dioxopiperidin-3-yl)-4-aminoisoindoline, gene expression of VEGF, p21, p53, and cyclin D1 was measured using real-time PCR.
(Real-time PCR tracks product formation cycle by cycle.)

Assay [3] has as its system Rec-1 cells. In words: Rec-1 cell growth in the presence of rhVEGF or anti-VEGF antibody. The settings on record: Rec-1 cells (FIG. 8). The procedure: (§3) NHL cell proliferation was assessed by 3H-thymidine incorporation assay. Briefly, cells were cultured in 96 well cell culture plates in complete RPMI-1640 medium in the presence and absence of drugs. Following incubation at 37° C. for 3 days, 1 μCi 3H-thymidine was added to each well for the last 5 hours of incubation. The 3H incorporation of each well was then measured.

The test system of assay [4] is NHL cell lines (Namalwa, Jeko-1, Rec-1, Granta-519, DB, JVM-2). In words: NHL cell proliferation, 3H-thymidine incorporation. The protocol: as §3
(§4) To better understand how the effectiveness of immunomodulatory compound administration varies among different cancer cell types, the immunomodulatory compound 1-oxo-2-(2,6-dioxopiperidin-3-yl)-4-aminoisoindoline was tested in vitro for its anti-proliferative effect in several NHL cell lines after 1-3 days of treatment. The method utilized ^3H-thymidine incorporation, microbead array technology and real time PCR. The six tested cell lines were Namalwa, Jeko-1, Rec-1, Granta-519, DB, and JVM-2.
For orientation: Uptake of a labelled nucleoside into DNA is a usual measure of proliferation.

For assay [5], the system named is DB cells. Put plainly: Luminex assay for VEGF production, DB. The settings on record: 3 days. The protocol:
(§5) Cells were treated with the drug for 3 days in 96 well plates. Cell culture supernatants were then collected for measurement of VEGF using Luminex/xMAP® technology.
(§6) 1-oxo-2-(2,6-dioxopiperidin-3-yl)-4-aminoisoindoline inhibited the production of the pro-angiogenic growth factor VEGF from anti-proliferation sensitive NHL cells, such as Namalwa, Jeko-1 and Rec-1 cells.

Assay [6] deals with Namalwa cells. Put plainly: Luminex assay for VEGF production, Namalwa. The note with it: 3 days. The procedure: as §5, §6
Assay [7] concerns Namalwa cells. In words: Real-time RT-PCR gene expression in Namalwa cells. The procedure: as §1, §2
The effect of the administration of 1-oxo-2-(2,6-dioxopiperidin-3-yl)-4-aminoisoindoline in Namalwa cells after 48 hours of drug treatment was measured.
The effect of administration of 1-oxo-2-(2,6-dioxopiperidin-3-yl)-4-aminoisoindoline at various time points from 0 to 48 hours in the fold change in expression of several genes was measured in Namalwa cells (FIG. 11).

Assay [8] relates to DB cell line. In words: NHL cell proliferation, 3H-thymidine incorporation, DB cells. The note with it: DB (t(14;18)) cells. The protocol:
as §3, §4

For assay [9], the system named is Rec-1 cells. Put plainly: Luminex assay for VEGF production, Rec-1. The note with it: 3 days. The protocol: as §5, §6
Assay [10] has as its system Jeko-1 cells. Put plainly: Luminex assay for VEGF production, Jeko-1. The settings on record: 3 days. The procedure: as §5, §6
Assay [11] concerns Granta-519 cells. Put plainly: Luminex assay for VEGF production, Granta-519. The note with it: 3 days. The procedure:
as §5, §6

Assay [12] deals with Namalwa cells. In words: Proliferation of Namalwa cells after SPARC siRNA knockdown. The note with it: SPARC siRNA 200 nM, drug for 2 days. The protocol: as §3
Cells were transfected with SPARC or cyclophilin siGENME SMARTpool (Dharmacon, Lafayette, Colo.) at final concentration of 200 nM using DharmaFECT 2 transfection reagents following the manufacturer's protocol. After 24 hours of transfection, cells were then treated with the drug for 2 days.
SPARC siRNA was transfected to Namalwa cells to determine the effect of a SPARC knockdown on the antiproliferative effect of 1-oxo-2-(2,6-dioxopiperidin-3-yl)-4-aminoisoindoline in Namalwa cells. The anti-proliferative effect of 1-oxo-2-(2,6-dioxopiperidin-3-yl)-4-aminoisoindoline is weaker after SPARC knockdown compared to mock transfected control cells.

Assay [13] deals with sensitive NHL cells. Put plainly: Luminex assay for VEGF production, sensitive NHL cells. The protocol:
as §5, §6

The subject of assay [14] is NHL cells. In words: Real-time RT-PCR gene expression in NHL cell lines. The procedure: as §1, §2
The effect of the administration of 1-oxo-2-(2,6-dioxopiperidin-3-yl)-4-aminoisoindoline in various NHL cells was measured after 24 hours of incubation, using real-time RT-PCR (FIG. 9).

The mark [15] stands for this setting: Namalwa cells, 10 μM, 2-48 hours.

Take `Nc1cccc2c1C(=O)N(C1CCC(=O)NC1=O)C2=O` (centres unmarked) [1,3-dioxo-2-(2,6-dioxopiperidin-3-yl)-4-aminoisoindoline]: the “enhancement of mRNA levels of p21, activin A and SPARC” value in [1] (10 μM) is listed as “about 3 fold”. Besides, in assay [1] (1-10 μM), the “SPARC mRNA level” value is reported as “up-regulate”, the “activin A mRNA level” value is “up-regulate” and the “p21 mRNA level” value is given as “up-regulate”. In assay [1], the “effect on p21” value is “clear enhancing effect”. Moreover, in assay [2], the “VEGF mRNA level” value was “decrease” and the “p21 mRNA level” value was “increase”.
As for `Nc1cccc2c1CN(C1CCC(=O)NC1=O)C2=O` (centres unmarked) [1-oxo-2-(2,6-dioxopiperidin-3-yl)-4-aminoisoindoline], the “anti-proliferative activity on addition of exogenous recombinant human VEGF (in excess) or neutralizing VEGF antibody” value in [3] is on record as “does not affect”. Besides, in assay [4] (1-3 days of treatment), the “anti-proliferative activity against NHL cells” value is on record as “demonstrated anti-proliferative activity”. Besides, the “order of sensitivity of NHL cell lines to the compound” value in assay [4] (3 day incubation) is reported as “Namalwa>Rec-1>Jeko-1>Granta-519>JVM-2>DB”. The “production of VEGF” value in [5] was “fails to inhibit”. Moreover, the “production of VEGF” value in assay [6] is listed as “inhibited”. Besides, in assay [7] (setting [15]), the “change in expression of BlyS” value is “did not exhibit a significant change”, the “change in expression of VEGF” value is “did not exhibit a significant change”, the “change in expression of cyclin D1” value is “did not exhibit a significant change” and the “change in expression of p53/p73” value is given as “did not exhibit a significant change”. Moreover, the “cell proliferation of DB cell line” value in assay [8] is recorded as “increased rate of cell proliferation”. Also, the “enhancement of activin A mRNA level” value in assay [1] (1 μM) is recorded as “up to 2.6 fold”. The “SPARC mRNA level” value in [1] (10 μM) is on record as “enhanced”. The “production of VEGF” value in assay [9] is “inhibited”. Further, the “production of VEGF” value in assay [10] is on record as “inhibited”. For the same compound, the “production of VEGF” value in [11] is recorded as “fails to inhibit”. In addition, the “anti-proliferative effect after SPARC knockdown compared to mock transfected control cells” value in assay [12] is listed as “weaker”. In addition, in assay [13], the “concentrations for the effect on VEGF compared with anti-proliferative effects” value is reported as “well below levels required for anti-proliferative effects”. Further, the “production of the proangiogenic growth factor VEGF” value in assay [13] (FIG. 7) is “inhibits”. In addition, the “VEGF mRNA expression” value in assay [14] (NHL cells) is on record as “does not inhibit”. For the same compound, in assay [14] (both sensitive and resistant (DB) cells), the “p21 in sensitive and resistant (DB) cells” value is “elevated p21 was observed”. Also, in assay [14] (resistant cells), the “elevation of SPARC mRNA in resistant cells” value was “not seen”. Also, in [14] (sensitive NHL cells, 24 hours), the SPARC expression result was “increased” and the p21cip/kip expression entry is “increased”. Further, the “SPARC mRNA expression” value in [14] (several NHL cell lines) is “increased expression of SPARC mRNA”. For the same compound, the p21cip/kip expression result in assay [14] (several cell lines) is reported as “increased”. In addition, in assay [2], the “VEGF mRNA level” value is given as “decrease” and the “p21 mRNA level” value was “increase”.
With `C[C@@H]1C[C@H]2[C@@H]3CCC4=CC(=O)C=C[C@]4(C)[C@@]3(F)[C@@H](O)C[C@]2(C)[C@@]1(O)C(=O)CO` [dexamethasone], the SPARC expression result in assay [7] (dexamethasone alone, NHL cells such as Namalwa) is “no effect”.
